From a melting point compilation (Tetko et al.; mined from patent text by program, amines drawn as free bases though some values may be those of a salt)

First: CN1C(=O)C(C(=O)Nc2ccccn2)Sc2ccccc21 (stereo not drawn)
Second: C[C@@H]1C(=O)c2ccccc2O[C@H]1c1ccccc1 (relative stereo)
The melting point of the first is higher: 141 to 143 °C for the first, 99 to 100 °C for the second.

First: O=C1C(=O)c2ccccc2C2=C1SCC1(CCN(C(=O)c3ccco3)CC1)O2
Second: O=C1CCCc2c1c1cccc(F)c1n2Cc1ccccc1
The melting point of the first is lower: 165 °C for the first, 183 to 184 °C for the second.

First: CN1CCN(c2c(F)c(F)c([N+](=O)[O-])c(NC3CC3)c2F)CC1
Second: CN1CCc2c(sc3c2C(=O)N(CCCl)CN3)C1
The melting point of the first is lower: 75 °C for the first, 159 to 161 °C for the second.

Compared with `C=CCOc1ccc(C(=O)O)cc1`, `CCCCCC(CCC(=O)c1ccc(OCC)cc1)C(=O)O` (stereo not drawn) is lower in melting point: 163 to 164 °C for the first, 61 °C for the second.

First: CCOC(=O)c1cc(-c2nnn(C)n2)c(-c2ccc(F)cc2)s1
Second: NC(=O)c1cc(N2CCN(Cc3ccc(F)cc3)C2=O)n[nH]1
The melting point of the first is lower: 108 to 110 °C for the first, 256 to 258 °C for the second.

Compared with `CON(C)C(=O)c1ccc(F)cc1`, `CN(C)C(=O)CON(Cc1ccc(F)cc1)C(=O)C1=C(O)C(=O)N(C)C1` is higher in melting point: 9 °C for the first, 147 to 149 °C for the second.

First: CCN(CC)CC1CCCCN1CCNC(=O)N1c2ccccc2NC(=O)c2ccccc21 (stereo not drawn)
Second: CCN(CC)CCCN1CCC(O)(c2ccccc2)C(C(=O)c2ccccc2)C1 (stereo not drawn)
The melting point of the first is higher: 123 to 125 °C for the first, 76 to 78 °C for the second.

Compared with `Oc1ccc(-c2nc3ccccc3[nH]2)cc1`, `Oc1c(Cc2ccccc2)ccc2[nH]ccc12` is lower in melting point: 286 to 288 °C for the first, 104 to 106 °C for the second.

First: O=c1c(Cl)c(Cl)cnn1CC(Cl)=CCl
Second: Cn1c(CO)nc2ccc(Cl)nc21
The melting point of the first is lower: 93.7 to 94.6 °C for the first, 204 to 210 °C for the second.

First: COC(=O)CCC(=O)c1cc(OC)ccc1OCC(O)CNC(C)(C)C (stereo not drawn)
Second: CCN(CC(=O)O)c1ccc(OCC(C)(C)C)c(C#N)c1
The melting point of the first is lower: 70 to 72 °C for the first, 78 °C for the second.

First: O=[N+]([O-])c1ccc(OC2OC(CO)C(O)C(OCc3ccccc3)C2O)cc1 (stereo not drawn)
Second: O=c1c(Br)c(OCc2ccccc2Cl)ccn1Cc1ccccc1
The melting point of the first is lower: 127 °C for the first, 143 to 146 °C for the second.

First: O=S(=O)(Nc1ccccc1COc1cccc2cccnc12)c1cccc(C(F)(F)F)c1
Second: Cc1c(Cc2cccc(C(=O)O)c2)n(S(=O)(=O)c2cccc(C(C)(C)C)c2)c2ccc(C(F)(F)F)cc12
The melting point of the first is lower: 120 to 121 °C for the first, 194 °C for the second.

Compared with `CC(=O)Nc1c(C(=O)c2ccccc2)[nH]c2cccc(Cl)c12`, `O=C(O)Cc1cc(C(=O)c2ccccc2)ccc1O` is lower in melting point: 221 to 222 °C for the first, 205 °C for the second.

Compared with `C#Cc1cc(F)c(-n2c(=O)cc(C(F)(F)F)n(C)c2=O)c2c1OC(C)C2` (stereo not drawn), `Cn1c(=O)[nH]c(=O)n(-c2cc(O)ccc2Br)c1=O` is higher in melting point: 69 to 72.5 °C for the first, 265 to 270 °C for the second.

First: COc1c(Cl)cc(C(=O)O)c2c1OCCO2
Second: COc1cc(N2CCOCC2)ccc1C(=O)O
The melting point of the first is higher: 172 °C for the first, 158 to 160 °C for the second.

First: CN(O)C(=O)C=Cc1ccc(Cl)c(O)c1
Second: O=C(CBr)Nc1ccc(O)cc1C(=O)O
The melting point of the first is lower: 196 °C for the first, 213 to 215 °C for the second.

First: C=CCCO[C@@H](Cc1ccc(OCCc2nc(C(C)(C)C)oc2C)c2ccsc12)C(=O)O
Second: CCCCCCNc1cc(-c2nc(=O)c3ccccc3s2)ccn1
The melting point of the first is lower: 70 to 71 °C for the first, 134 to 135 °C for the second.

Compared with `CCOC(=O)c1cnc2c(C)csc2c1Nc1ccccc1C`, `CCc1cccc(C)c1CNc1cc(Br)cc2c1nc(C)n2C` is higher in melting point: 132 to 134 °C for the first, 145 to 147 °C for the second.

Going from `CC(C)c1ccc(S(=O)(=O)Nc2ccc(Cl)cc2I)cc1` to `O=S(=O)(Cl)c1ccc(Oc2ccc(Cl)cc2)cc1`, the melting point falls from 149 °C to 61 °C.

First: N#CSc1cc(-c2ccccc2)c(O)c(-c2ccccc2)c1
Second: Ic1ccc(-c2nc3ccccc3n2-c2ccccc2)cc1
The melting point of the first is lower: 104 to 106 °C for the first, 178 to 181 °C for the second.

First: O=C(O)C1=Cc2cc(-c3ccc(C(F)(F)F)cc3)ccc2S(=O)(=O)CC1
Second: Cc1csc(-c2ccc3c(c2)C=C(C(=O)Nc2ccc(CN(C)C4CCOCC4)cc2)CCS3(=O)=O)c1
The melting point of the first is higher: greater than 300 °C for the first, 232 to 234 °C for the second.

First: COc1cc2cc(CO)c(CO)c(-c3ccncc3)c2cc1OC
Second: COc1cc(-c2cc(=O)c3cccnc3o2)ccc1O
The melting point of the first is lower: 118 to 120 °C for the first, 253 to 255 °C for the second.

First: CCOc1nc2ccccc2nc1N(C)C(=O)N1CCN(c2cc(Cl)cc(Cl)c2)CC1
Second: COc1ccc(C(=O)N2CCN(c3ccc(N)c(C=CC(=O)O)c3)CC2)cc1OC
The melting point of the first is lower: 129 to 131 °C for the first, 168 to 170 °C for the second.

`COC(=O)c1cccnc1NS(=O)(=O)NC(C)C` and `CCNC(=O)c1c(Br)cccc1[Si](C)(C)C` cannot be ordered by melting point: 121 to 123 °C for the first, 121 to 122 °C for the second.

First: CC(C)C(=O)N[C@@H]1CCc2c(c3cc(-c4ccno4)ccc3n2Cc2cccc(F)c2)C1
Second: Cc1ccc(C(=O)c2cnn3c(-c4cccc(NC(=O)C5CC5)c4)ccnc23)s1
The melting point of the first is lower: 238 to 241 °C for the first, 243 to 245 °C for the second.

First: COC(=O)Cc1cc(NC(=O)OC(C)(C)C)c([N+](=O)[O-])cc1C#Cc1ccccc1
Second: CC(C)(C)OC(=O)N1CCN(Cc2ccccc2)C(=S)C1
The melting point of the first is higher: 134 °C for the first, 126 to 129 °C for the second.

First: Cc1cc(-c2ccc(F)cc2)n(-c2ccc(S(N)(=O)=O)cc2)c1
Second: COc1cc(OC)c(-c2cccs2)cc1/C=C/C(=O)c1ccc(S(=O)(=O)Nc2cc[nH]n2)cc1
The melting point of the first is higher: 168 to 170 °C for the first, 142 to 145 °C for the second.

First: C[C@H]1C=CC2=C[C@@H](O)C[C@H](OC(=O)C(C)(C)C)[C@@H]2[C@H]1CC[C@@H]1C[C@@H](O)CC(=O)O1
Second: Cc1cn2c(N)c(Cl)cc(C(=O)NCC3CCN(C(C)C(=O)C(C)(C)C)CC3)c2n1 (stereo not drawn)
The melting point of the first is lower: 132 to 133 °C for the first, 207 °C for the second.

First: COC1Oc2c(c(=O)oc3cc(O)ccc23)C1c1c(O)c2ccc(O)cc2oc1=O (stereo not drawn)
Second: O=C(Oc1cc(OC(=O)c2cc(O)cc(O)c2)c2ccccc2c1)c1cc(O)cc(O)c1
The melting point of the first is higher: greater than 300 °C for the first, 167 to 169 °C for the second.

First: N#Cc1cc(Cn2cncn2)cc(-c2ccccc2)c1
Second: CS(=O)(=O)Nc1ccc(C#CCCN2CC=C(c3ccccc3)CC2)nc1
The melting point of the first is lower: 109 to 110 °C for the first, 138 to 139 °C for the second.

First: Cc1cc(NCc2ccc(Oc3ccc4ncc([N+](=O)[O-])n4n3)c(OCC3CC3)c2)nc(C)n1
Second: COc1ccc(Oc2c(OC)cc([N+](=O)[O-])c3nccc(C)c23)cc1
The melting point of the first is lower: 113 to 118 °C for the first, 158 to 160 °C for the second.

Compared with `CC(C)(C)C(=O)Nc1c(F)cc(F)cc1Oc1ccc(C(C)(C)C(N)=O)cc1`, `COc1ccc(CC(SC)C(N)=O)cc1C(=O)NCc1ccc(C(F)(F)F)cc1` (stereo not drawn) is lower in melting point: 169 to 170 °C for the first, 152 to 154 °C for the second.

Going from `NC/C(=C\F)COc1ccc(Cl)cc1Cl` to `NC[C@H]1COc2ccc(F)c(-c3ccc(Cl)cc3Cl)c2O1`, the melting point falls from 104 °C to 65 °C.

First: COC(=O)CCCc1cc2nc(Cl)ccc2n1S(=O)(=O)c1ccc(N(C)C)cc1
Second: CN(C)c1ccc(N=Nc2nc3ccccc3s2)cc1
The melting point of the first is lower: 188 °C for the first, 243 to 246 °C for the second.

First: O=C(O)CCCCc1cc(O)c(O)c([N+](=O)[O-])c1
Second: Cc1c(C#N)ccc([N+](=O)[O-])c1C#N
The melting point of the first is higher: 135 to 138 °C for the first, 122 to 124 °C for the second.

First: Fc1ccc2c(CN3CC=C(CCc4ccccc4)CC3)c[nH]c2c1
Second: O=C1NN(C(=O)c2ccccc2NCc2ccccc2)Cc2ccccc21
The melting point of the first is lower: 150 to 152 °C for the first, 206 to 208 °C for the second.

Compared with `COc1nc(C)c(C)cc1N`, `Cc1cc(-c2cc(N)ccc2F)cc(C)n1` is higher in melting point: 56 to 58 °C for the first, 142 to 145 °C for the second.

Compared with `CCCn1c(=O)c2[nH]c(-c3ccsc3)nc2n(CCC)c1=O`, `CCOC(=O)Cn1c(=O)c2cc(Cc3ncc[nH]3)ccc2n(Cc2ccc(Cl)c(Cl)c2)c1=O` is lower in melting point: greater than 250 °C for the first, 201 to 202 °C for the second.

Compared with `CCOCCS(=O)(=O)c1nc[nH]n1`, `CCc1cc(Cl)cnc1N` is lower in melting point: 91.5 to 92.5 °C for the first, 67 to 68 °C for the second.

`NC(=O)CC1Cc2cc(Br)cc3[nH]c(=O)c(=O)n1c23` (stereo not drawn) and `COc1cc(CNC(C)=O)c(Br)cc1O` cannot be ordered by melting point: greater than 300 °C for the first, greater than 300 °C for the second.

First: C=CCc1cc(C2=NNC(=O)CC2)ccc1OCC1CO1 (stereo not drawn)
Second: N#Cc1cnn2c1N(C(=O)CCCl)CC=C2c1cccc(C(F)(F)F)c1
The melting point of the first is lower: 92.5 to 95 °C for the first, 183 to 185 °C for the second.

Compared with `O=S(CCCCCl)Cc1ccc(Cl)cc1` (stereo not drawn), `NNc1ccc(-c2cccc(Cl)c2)nn1` is higher in melting point: 56 to 58 °C for the first, 173 to 174 °C for the second.

Compared with `COCCN(C)Cc1c(-c2ccc(NC(=O)NOC)cc2)sc2c1c(=O)n(-c1ccc3c(c1)OCCO3)c(=O)n2Cc1c(F)cccc1F`, `CCOC(=O)CC1=NCC(c2cccc(OCc3ccc4ccccc4n3)c2)O1` (stereo not drawn) is lower in melting point: 155 to 156 °C for the first, 94 to 95 °C for the second.

`CCCc1nc2c(N)nc3cc(O)ccc3c2s1` and `CCCn1c(COCC)nc2c(N)nc3ccc(OC4CCN(C(=O)NC(C)C)CC4)cc3c21` fall in the same range of melting point: 236 to 239 °C for the first, 236 to 239 °C for the second.

First: COc1ccc(C(=O)c2cccc(CC(=O)O)c2N)cc1
Second: N#Cc1cccn2cc(-c3ccc(C(=O)NCCC(=O)O)cc3)nc12
The melting point of the first is lower: 117 to 118 °C for the first, 212 to 215 °C for the second.

First: CNC(=NC#N)NCCCCSc1nccc(NC(N)=NCC(F)(F)F)n1
Second: CN=C(N)Nc1nc(CCCCNC(=NC#N)NC)cs1
The melting point of the first is higher: 179 to 180 °C for the first, 119 to 122 °C for the second.

Compared with `Cc1nnc(C=Cc2ccccc2OCC(O)CCl)s1` (stereo not drawn), `Cc1ccccc1NC(=N)NC1CCCCC1` is lower in melting point: 168 to 170 °C for the first, 145 to 146 °C for the second.

`CC1(C)CC(OC(=O)c2ccc(CN(O)Cc3ccc(C(=O)OC4CC(C)(C)N(OC5CCCCC5)C(C)(C)C4)cc3)cc2)CC(C)(C)N1OC1CCCCC1` and `COC(=O)[C@@]12CN(Cc3ccccc3)C[C@@H]1[C@@](O)(c1ccc(C)cc1)CC[C@H]2c1ccccc1` (racemic) cannot be ordered by melting point: 163 to 166 °C for the first, 164 °C for the second.

Compared with `CCOC(=O)C1CCNC(=O)C1=O` (stereo not drawn), `CCOC(=O)c1cn(-c2nonc2C)c2nc(Cl)c(F)cc2c1=O` is higher in melting point: 148 to 151 °C for the first, 211 to 216 °C for the second.

First: CC(CCCC(C)(C)O)C1CCC2C3CCC4(O)CC(O)CCC4(C)C3CCC12C (stereo not drawn)
Second: CON1CCC2(CC1)C(OCc1ccccc1)=C(c1c(C)cc(C)cc1C)C(=O)N2CC1CC1
The melting point of the first is higher: 202 to 204 °C for the first, 119 to 121 °C for the second.

First: Nc1cn(C2OC(CO)C(O)C2O)nn1 (stereo not drawn)
Second: CCCCCCN1C(=O)C(=CC(=O)O)SC1=Nc1ccccc1
The melting point of the first is lower: 102 to 104 °C for the first, 145 to 146 °C for the second.

In the case of `CC(C)N1C(CN2CCOCC2)=Cc2cc(S(N)(=O)=O)sc2S1(=O)=O`, the melting point is reported as 196 to 198 °C.
